Results published in patent US9315520B2, “2-amino-6-methyl-4,4a,5,6-tetrahydropyrano[3,4-d][1,3]thiazin-8a(8H)-yl-1,3-thiazol-4-yl amides” (Pfizer Inc., priority 2014, dated 2016).
pIC50: −log10 of the molar value. Structures can show the parent of a compound that is named as a salt.

Target: BACE1 (Homo sapiens (Human), UniProt P56817)
Experiment: BACE1 Cell-Free Assay (fluorescence polarization)
Type: biochemical
Settings: geometric mean of 2-4 determinations unless otherwise indicated (b: ≧5; c: single determination); read-out: BACE1 Cell-free Assay IC50

Sequence of BACE1 (P56817 46-457): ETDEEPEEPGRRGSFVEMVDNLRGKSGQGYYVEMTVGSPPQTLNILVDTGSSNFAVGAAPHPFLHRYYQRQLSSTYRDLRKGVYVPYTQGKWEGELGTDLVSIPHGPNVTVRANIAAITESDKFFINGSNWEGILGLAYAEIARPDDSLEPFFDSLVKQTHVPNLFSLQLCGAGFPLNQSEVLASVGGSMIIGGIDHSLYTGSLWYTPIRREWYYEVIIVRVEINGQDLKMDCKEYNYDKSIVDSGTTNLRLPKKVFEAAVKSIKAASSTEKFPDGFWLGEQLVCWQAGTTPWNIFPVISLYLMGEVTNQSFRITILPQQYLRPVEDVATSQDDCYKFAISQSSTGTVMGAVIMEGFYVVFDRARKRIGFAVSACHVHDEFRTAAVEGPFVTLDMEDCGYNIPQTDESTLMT

SMILES	pIC50
C[C@H]1C[C@H]2CSC(N)=N[C@@]2(c2nc(NC(=O)c3ccnn3C3CC3)cs2)CO1 [Example 85, N-{2-[(4aR,6S,8aR)-2-amino-6-methyl-4,4a,5,6-tetrahydropyrano[3,4-d][1,3]thiazin-8a(8H)-yl]-1,3-thiazol-4-yl}-1-cyclopropyl-1H-pyrazole-5-carboxamide, formate salt]	5.37
CC(C)c1nc(C(=O)Nc2csc([C@]34CO[C@@H](C)C[C@H]3CSC(N)=N4)n2)co1 [Example 86, N-{2-[(4aR,6S,8aR)-2-amino-6-methyl-4,4a,5,6-tetrahydropyrano[3,4-d][1,3]thiazin-8a(8H)-yl]-1,3-thiazol-4-yl}-2-(propan-2-yl)-1,3-oxazole-4-carboxamide]	4.79
C[C@H]1C[C@H]2CSC(N)=N[C@@]2(c2nc(NC(=O)c3ccn(CC(F)F)n3)cs2)CO1 [Example 87, N-{2-[(4aR,6S,8aR)-2-amino-6-methyl-4,4a,5,6-tetrahydropyrano[3,4-d][1,3]thiazin-8a(8H)-yl]-1,3-thiazol-4-yl}-1-(2,2-difluoroethyl)-1H-pyrazole-3-carboxamide]	6.40
COCCn1ccc(C(=O)Nc2csc([C@]34CO[C@@H](C)C[C@H]3CSC(N)=N4)n2)n1 [Example 88, N-{2-[(4aR,6S,8aR)-2-amino-6-methyl-4,4a,5,6-tetrahydropyrano[3,4-d][1,3]thiazin-8a(8H)-yl]-1,3-thiazol-4-yl}-1-(2-methoxyethyl)-1H-pyrazole-3-carboxamide]	6.38
C#CCn1ccc(C(=O)Nc2csc([C@]34CO[C@@H](C)C[C@H]3CSC(N)=N4)n2)n1 [Example 89, N-{2-[(4aR,6S,8aR)-2-amino-6-methyl-4,4a,5,6-tetrahydropyrano[3,4-d][1,3]thiazin-8a(8H)-yl]-1,3-thiazol-4-yl}-1-(prop-2-yn-1-yl)-1H-pyrazole-3-carboxamide]	7.77
COCc1nc(C(=O)Nc2csc([C@]34CO[C@@H](C)C[C@H]3CSC(N)=N4)n2)co1 [Example 90, N-{2-[(4aR,6S,8aR)-2-amino-6-methyl-4,4a,5,6-tetrahydropyrano[3,4-d][1,3]thiazin-8a(8H)-yl]-1,3-thiazol-4-yl}-2-(methoxymethyl)-1,3-oxazole-4-carboxamide]	6.76
C[C@H]1C[C@H]2CSC(N)=N[C@@]2(c2nc(NC(=O)c3coc(CC(F)(F)F)n3)cs2)CO1 [Example 91, N-{2-[(4aR,6S,8aR)-2-amino-6-methyl-4,4a,5,6-tetrahydropyrano[3,4-d][1,3]thiazin-8a(8H)-yl]-1,3-thiazol-4-yl}-2-(2,2,2-trifluoroethyl)-1,3-oxazole-4-carboxamide]	6.67
C[C@H]1C[C@H]2CSC(N)=N[C@@]2(c2nc(NC(=O)C3CCC3)cs2)CO1 [Example 93, N-{2-[(4aR,6S,8aR)-2-amino-6-methyl-4,4a,5,6-tetrahydropyrano[3,4-d][1,3]thiazin-8a(8H)-yl]-1,3-thiazol-4-yl}cyclobutanecarboxamide]	6.42
CC#CCOc1ccc(C(=O)Nc2csc([C@]34CO[C@@H](C)C[C@H]3CSC(N)=N4)n2)nc1 [Example 94, N-{2-[(4aR,6S,8aR)-2-amino-6-methyl-4,4a,5,6-tetrahydropyrano[3,4-d][1,3]thiazin-8a(8H)-yl]-1,3-thiazol-4-yl}-5-(but-2-yn-1-yloxy)pyridine-2-carboxamide]	7.74
C[C@H]1C[C@H]2CSC(N)=N[C@@]2(c2nc(NC(=O)c3nc(C(F)F)co3)cs2)CO1 [Example 95, N-{2-[(4aR,6S,8aR)-2-amino-6-methyl-4,4a,5,6-tetrahydropyrano[3,4-d][1,3]thiazin-8a(8H)-yl]-1,3-thiazol-4-yl}-4-(difluoromethyl)-1,3-oxazole-2-carboxamide]	7.12
